In assay [1] the test system is mTNBC. As to conditions: historical control for mTNBC patients with PD-L1 negative status; cited from earlier work.
The subject of assay [2] is MBT-2 cells. Nature of the assay: Proliferation assay of mouse cancer cell lines (CellTiter-Lumi, ATP). As to conditions: afuresertib 0.0001-10 μM, 3 days, FIG. 1. Format: cell-based.
Experimental: The cell lines were obtained from Cobioer Biosciences Co. Ltd., Nanjing, China. 1,000 to 2,000 cells were seeded into 96-well plate, and induced with various concentrations of afuresertib (0.0001-10 μM) for 3 days at 37° C. with 5% CO2. The number of viable cells in culture was determined based on quantitation of the amount of ATP following the manufacturer's instructions (CellTiter-Lumi Kit, Beyotime).
Assay [3] deals with Akt (protein kinase B). The following applies: reversible, ATP-competitive; stated as known; cited from earlier work.
Assay [4] has as its system solid tumors. The following applies: literature values of approved antibodies; cited from earlier work.

Turning to `CC(=O)O[C@H]1C(=O)[C@@]2(C)[C@H]([C@H](OC(=O)c3ccccc3)[C@]3(O)C[C@H](OC(=O)[C@H](O)[C@@H](NC(=O)c4ccccc4)c4ccccc4)C(C)=C1C3(C)C)[C@]1(OC(C)=O)CO[C@@H]1C[C@@H]2O` [paclitaxel, [(1S,2S,3R,4S,7R,9S,10S,12R,15S)-4,12-diacetyloxy-15-[(2R,3S)-3-benzamido-2-hydroxy-3-phenylpropanoyl]oxy-1,9-dihydroxy-10,14,17,17-tetramethyl-11-oxo-6-oxatetracyclo[11.3.1.0^3,10.0^4-7]heptadec-13-en-2-yl]benzoate], in assay [1], the “ORR, paclitaxel monotherapy, LOTUS Study” value is listed as 32%.

As to `Cn1ncc(Cl)c1-c1cc(C(=O)N[C@H](CN)Cc2cccc(F)c2)sc1Cl` [Afuresertib, N-{(1S)-2-amino-1-[(3-fluorophenyl)methyl]ethyl}-5-chloro-4-(4-chloro-1-methyl-1H-pyrazol-5-yl)-2-thiophenecarboxamide], the “response of cell proliferation (cell viability)” value in assay [2] is on record as “favorable response profile”. Besides, the “pan-AKT kinase inhibitor potency” value in assay [3] was “low-nanomolar”.

Take “Atezolizumab: anti-PD-L1 antibody (Genentech/Roche)”: in assay [4], the “ORR, Phase I studies in solid tumors” value is 10%.

With “Avelumab: anti-PD-L1 antibody (Merck Serono and Pfizer)”, in assay [4], the “ORR, Phase I studies in solid tumors” value is reported as 9%.

With “Pembrolizumab: listed among other approved anti-PD-L1 antibodies from Phase I studies”, the “ORR, Phase I studies in solid tumors” value in assay [4] is 5.3%.

The values above are taken from patent US20250177352A1, “COMBINATION TREATMENT FOR CANCER” (LAEKNA LIMITED, priority 2022, published 2025).
